Reference: article PMC6437697 (Journal of Medicinal Chemistry, 2019)

How the values were obtained:
Assay in all cases: KINOMEscan
Assay type in all cases: binding
[1] = molecular target: T1, CDC2L1 (Homo sapiens, UniProt P21127); details: read-out: % control activity remaining
T1 construct: purchased Eurofins DiscoverX KINOMEscan

[2] = molecular target: T2, CHEK2 (Homo sapiens, UniProt O96017); details: read-out: % control activity remaining
T2 construct: purchased Eurofins DiscoverX KINOMEscan

[3] = molecular target: T3, CSNK1A1 (Homo sapiens, UniProt P48729); details: read-out: % control activity remaining
T3 construct: purchased Eurofins DiscoverX KINOMEscan

[4] = molecular target: T4, CSNK1G2 (Homo sapiens, UniProt P78368); details: read-out: % control activity remaining
T4 construct: purchased Eurofins DiscoverX KINOMEscan

[5] = molecular target: T5, DYRK1B (Homo sapiens, UniProt Q9Y463); details: read-out: % control activity remaining
T5 construct: purchased Eurofins DiscoverX KINOMEscan

[6] = molecular target: T6, EGFR(L858R,T790M) (Homo sapiens, UniProt P00533, L858R/T790M); details: read-out: % control activity remaining
T6 construct: purchased Eurofins DiscoverX KINOMEscan

[7] = molecular target: T7, ERBB2 (Homo sapiens, UniProt P04626); details: read-out: % control activity remaining
T7 construct: purchased Eurofins DiscoverX KINOMEscan

[8] = molecular target: T8, JAK1(JH2domain-pseudokinase) (Homo sapiens, UniProt P23458); details: read-out: % control activity remaining
T8 construct: JAK1(JH2domain-pseudokinase); purchased Eurofins DiscoverX KINOMEscan

[9] = molecular target: T9, LATS2 (Homo sapiens, UniProt Q9NRM7); details: read-out: % control activity remaining
T9 construct: purchased Eurofins DiscoverX KINOMEscan
T9 sequence (Q9NRM7 1-1088): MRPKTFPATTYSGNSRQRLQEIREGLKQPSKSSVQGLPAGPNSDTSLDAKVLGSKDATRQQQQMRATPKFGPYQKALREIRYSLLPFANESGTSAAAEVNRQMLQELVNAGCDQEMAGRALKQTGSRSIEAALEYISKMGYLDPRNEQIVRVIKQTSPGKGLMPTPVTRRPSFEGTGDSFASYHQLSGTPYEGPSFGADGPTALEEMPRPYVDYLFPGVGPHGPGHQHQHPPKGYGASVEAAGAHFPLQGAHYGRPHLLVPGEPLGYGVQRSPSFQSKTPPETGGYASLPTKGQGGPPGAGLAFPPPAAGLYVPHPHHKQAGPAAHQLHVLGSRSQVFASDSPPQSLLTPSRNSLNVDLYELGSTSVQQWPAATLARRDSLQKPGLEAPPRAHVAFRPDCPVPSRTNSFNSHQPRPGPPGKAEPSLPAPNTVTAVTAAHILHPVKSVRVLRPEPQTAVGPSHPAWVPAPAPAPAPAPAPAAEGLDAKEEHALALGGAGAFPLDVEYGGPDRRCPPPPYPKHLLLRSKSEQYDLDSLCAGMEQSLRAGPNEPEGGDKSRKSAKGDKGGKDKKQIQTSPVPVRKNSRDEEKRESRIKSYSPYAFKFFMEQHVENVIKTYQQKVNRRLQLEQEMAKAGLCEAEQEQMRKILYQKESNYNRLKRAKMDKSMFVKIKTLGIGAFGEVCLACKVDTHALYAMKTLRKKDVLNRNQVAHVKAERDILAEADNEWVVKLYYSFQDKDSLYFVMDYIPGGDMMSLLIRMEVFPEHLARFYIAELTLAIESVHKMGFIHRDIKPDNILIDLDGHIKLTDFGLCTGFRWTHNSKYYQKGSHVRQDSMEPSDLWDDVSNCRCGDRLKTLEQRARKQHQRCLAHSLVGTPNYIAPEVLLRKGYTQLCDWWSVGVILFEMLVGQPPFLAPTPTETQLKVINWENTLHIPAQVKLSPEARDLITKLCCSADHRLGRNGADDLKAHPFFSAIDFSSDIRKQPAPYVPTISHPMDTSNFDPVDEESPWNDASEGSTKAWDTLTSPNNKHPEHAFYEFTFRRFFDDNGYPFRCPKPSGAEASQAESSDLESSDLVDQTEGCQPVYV

[10] = molecular target: T10, LIMK1 (Homo sapiens, UniProt P53667); details: read-out: % control activity remaining
T10 construct: purchased Eurofins DiscoverX KINOMEscan

[11] = molecular target: T11, LTK (Homo sapiens, UniProt P29376); details: read-out: % control activity remaining
T11 construct: purchased Eurofins DiscoverX KINOMEscan

[12] = molecular target: T12, MKNK2 (Homo sapiens, UniProt Q9HBH9); details: read-out: % control activity remaining
T12 construct: purchased Eurofins DiscoverX KINOMEscan

[13] = molecular target: T13, MTOR (Homo sapiens, UniProt P42345); details: read-out: % control activity remaining
T13 construct: purchased Eurofins DiscoverX KINOMEscan

[14] = molecular target: T14, PDGFRB (Homo sapiens, UniProt P09619); details: for remaining binding at 1 µM: read-out: % control activity remaining
T14 construct: purchased Eurofins DiscoverX KINOMEscan

[15] = molecular target: T15, PFTAIRE2 (Homo sapiens, UniProt Q96Q40); details: read-out: % control activity remaining
T15 construct: purchased Eurofins DiscoverX KINOMEscan

[16] = molecular target: T16, PFTK1 (Homo sapiens, UniProt O94921); details: read-out: % control activity remaining
T16 construct: purchased Eurofins DiscoverX KINOMEscan

[17] = molecular target: T17, PIK3CA(Q546K) (Homo sapiens, UniProt P42336, Q546K); details: read-out: % control activity remaining
T17 construct: purchased Eurofins DiscoverX KINOMEscan

[18] = molecular target: T18, RPS6KA4(Kin.Dom.1-N-terminal) (Homo sapiens, UniProt O75676); details: read-out: % control activity remaining
T18 construct: RPS6KA4(Kin.Dom.1-N-terminal); purchased Eurofins DiscoverX KINOMEscan
T18 sequence (O75676 33-301 limits assumed): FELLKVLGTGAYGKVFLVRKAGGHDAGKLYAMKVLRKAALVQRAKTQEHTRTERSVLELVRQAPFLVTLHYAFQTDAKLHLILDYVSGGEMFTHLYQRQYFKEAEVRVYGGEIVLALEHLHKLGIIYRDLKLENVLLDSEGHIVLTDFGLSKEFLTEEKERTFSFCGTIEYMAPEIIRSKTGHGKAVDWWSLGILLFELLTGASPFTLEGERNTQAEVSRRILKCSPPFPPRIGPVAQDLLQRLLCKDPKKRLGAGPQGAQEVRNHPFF

[19] = molecular target: T19, RPS6KA5(Kin.Dom.1-N-terminal) (Homo sapiens, UniProt O75582); details: read-out: % control activity remaining
T19 construct: RPS6KA5(Kin.Dom.1-N-terminal); purchased Eurofins DiscoverX KINOMEscan

[20] = molecular target: T20, SRPK2 (Homo sapiens, UniProt P78362); details: read-out: % control activity remaining
T20 construct: purchased Eurofins DiscoverX KINOMEscan
T20 sequence (P78362 whole entry): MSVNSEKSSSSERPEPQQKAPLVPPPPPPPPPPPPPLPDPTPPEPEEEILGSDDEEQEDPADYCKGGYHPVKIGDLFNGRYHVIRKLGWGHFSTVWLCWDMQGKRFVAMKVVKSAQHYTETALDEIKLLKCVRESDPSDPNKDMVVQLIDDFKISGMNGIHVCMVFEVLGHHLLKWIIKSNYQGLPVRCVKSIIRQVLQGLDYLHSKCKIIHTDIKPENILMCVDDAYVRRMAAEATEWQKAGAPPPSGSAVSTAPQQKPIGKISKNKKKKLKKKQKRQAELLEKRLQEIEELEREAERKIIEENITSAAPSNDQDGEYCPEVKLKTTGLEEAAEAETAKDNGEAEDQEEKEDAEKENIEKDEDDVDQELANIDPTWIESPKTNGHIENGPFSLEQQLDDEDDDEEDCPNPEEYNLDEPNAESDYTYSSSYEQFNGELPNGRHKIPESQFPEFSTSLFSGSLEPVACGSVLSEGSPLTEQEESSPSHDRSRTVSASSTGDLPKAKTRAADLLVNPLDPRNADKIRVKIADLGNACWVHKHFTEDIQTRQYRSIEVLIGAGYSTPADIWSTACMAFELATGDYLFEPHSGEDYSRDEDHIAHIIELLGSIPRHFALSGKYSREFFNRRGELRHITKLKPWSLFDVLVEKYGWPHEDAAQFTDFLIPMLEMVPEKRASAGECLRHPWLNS

T8 sequence (P23458 583-855 limits assumed): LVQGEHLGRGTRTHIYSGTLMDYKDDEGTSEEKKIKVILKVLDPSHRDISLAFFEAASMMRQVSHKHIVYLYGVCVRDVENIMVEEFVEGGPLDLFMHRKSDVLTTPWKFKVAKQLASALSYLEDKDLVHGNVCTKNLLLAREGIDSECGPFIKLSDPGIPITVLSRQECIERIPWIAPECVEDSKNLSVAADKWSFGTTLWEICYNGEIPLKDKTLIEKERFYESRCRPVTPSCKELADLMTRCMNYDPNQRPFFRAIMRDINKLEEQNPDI
T7 sequence (P04626 23-1255 limits assumed): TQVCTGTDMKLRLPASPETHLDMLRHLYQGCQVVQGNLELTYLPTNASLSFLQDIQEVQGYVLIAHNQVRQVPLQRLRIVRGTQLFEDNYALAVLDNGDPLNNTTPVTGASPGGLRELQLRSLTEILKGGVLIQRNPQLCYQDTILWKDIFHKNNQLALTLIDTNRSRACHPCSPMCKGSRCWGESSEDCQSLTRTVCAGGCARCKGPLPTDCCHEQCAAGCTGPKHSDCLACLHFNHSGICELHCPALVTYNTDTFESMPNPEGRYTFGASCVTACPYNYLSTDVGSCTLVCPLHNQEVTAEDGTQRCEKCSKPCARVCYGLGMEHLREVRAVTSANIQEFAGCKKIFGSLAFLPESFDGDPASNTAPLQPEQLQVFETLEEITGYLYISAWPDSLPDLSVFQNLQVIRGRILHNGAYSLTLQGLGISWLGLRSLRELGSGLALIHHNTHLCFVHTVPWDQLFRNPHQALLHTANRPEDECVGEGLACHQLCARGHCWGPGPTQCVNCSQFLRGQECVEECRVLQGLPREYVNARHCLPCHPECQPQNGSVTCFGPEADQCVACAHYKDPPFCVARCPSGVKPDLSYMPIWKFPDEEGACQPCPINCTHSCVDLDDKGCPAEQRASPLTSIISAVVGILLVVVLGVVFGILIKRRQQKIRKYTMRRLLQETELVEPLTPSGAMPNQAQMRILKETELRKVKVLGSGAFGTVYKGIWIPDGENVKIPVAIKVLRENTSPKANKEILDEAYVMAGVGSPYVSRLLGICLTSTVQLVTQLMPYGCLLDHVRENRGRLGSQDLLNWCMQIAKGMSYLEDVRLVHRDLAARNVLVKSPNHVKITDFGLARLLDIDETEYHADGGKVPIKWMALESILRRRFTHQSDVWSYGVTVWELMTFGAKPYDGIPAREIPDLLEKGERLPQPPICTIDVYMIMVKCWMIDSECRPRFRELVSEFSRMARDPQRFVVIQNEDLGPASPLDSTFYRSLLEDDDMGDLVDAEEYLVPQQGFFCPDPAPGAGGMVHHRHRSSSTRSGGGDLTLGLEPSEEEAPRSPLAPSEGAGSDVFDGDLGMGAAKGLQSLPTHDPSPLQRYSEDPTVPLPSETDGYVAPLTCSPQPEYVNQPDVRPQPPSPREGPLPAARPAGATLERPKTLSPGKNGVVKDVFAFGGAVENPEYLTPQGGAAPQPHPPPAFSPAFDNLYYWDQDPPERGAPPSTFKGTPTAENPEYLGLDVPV
T17 sequence (P42336 whole entry Q546K): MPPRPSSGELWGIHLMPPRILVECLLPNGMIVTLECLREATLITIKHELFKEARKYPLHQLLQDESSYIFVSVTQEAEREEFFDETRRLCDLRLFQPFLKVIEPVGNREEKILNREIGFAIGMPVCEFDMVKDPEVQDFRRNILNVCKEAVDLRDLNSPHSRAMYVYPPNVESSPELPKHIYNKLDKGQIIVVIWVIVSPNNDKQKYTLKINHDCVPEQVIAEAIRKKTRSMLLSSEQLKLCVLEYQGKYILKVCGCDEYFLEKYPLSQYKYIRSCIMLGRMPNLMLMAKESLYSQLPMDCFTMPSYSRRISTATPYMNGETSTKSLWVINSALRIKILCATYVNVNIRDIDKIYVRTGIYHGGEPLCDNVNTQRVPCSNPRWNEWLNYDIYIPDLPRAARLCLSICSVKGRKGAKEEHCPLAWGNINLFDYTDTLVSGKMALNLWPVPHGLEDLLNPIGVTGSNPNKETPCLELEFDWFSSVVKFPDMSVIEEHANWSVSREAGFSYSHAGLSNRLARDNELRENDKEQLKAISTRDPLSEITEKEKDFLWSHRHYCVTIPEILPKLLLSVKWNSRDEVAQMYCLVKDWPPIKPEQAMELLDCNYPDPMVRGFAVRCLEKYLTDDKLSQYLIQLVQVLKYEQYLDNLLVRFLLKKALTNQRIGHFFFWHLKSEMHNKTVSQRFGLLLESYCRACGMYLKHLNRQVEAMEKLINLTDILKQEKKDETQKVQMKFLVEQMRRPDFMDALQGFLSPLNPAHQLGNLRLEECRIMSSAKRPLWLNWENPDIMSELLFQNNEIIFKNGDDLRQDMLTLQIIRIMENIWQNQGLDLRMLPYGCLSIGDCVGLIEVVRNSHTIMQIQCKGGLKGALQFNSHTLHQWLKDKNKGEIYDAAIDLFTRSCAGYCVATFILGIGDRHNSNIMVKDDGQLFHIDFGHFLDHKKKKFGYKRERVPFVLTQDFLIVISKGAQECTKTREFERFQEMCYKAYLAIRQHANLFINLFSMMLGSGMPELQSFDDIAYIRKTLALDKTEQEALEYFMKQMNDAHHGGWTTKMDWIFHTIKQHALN
T11 sequence (P29376 17-864): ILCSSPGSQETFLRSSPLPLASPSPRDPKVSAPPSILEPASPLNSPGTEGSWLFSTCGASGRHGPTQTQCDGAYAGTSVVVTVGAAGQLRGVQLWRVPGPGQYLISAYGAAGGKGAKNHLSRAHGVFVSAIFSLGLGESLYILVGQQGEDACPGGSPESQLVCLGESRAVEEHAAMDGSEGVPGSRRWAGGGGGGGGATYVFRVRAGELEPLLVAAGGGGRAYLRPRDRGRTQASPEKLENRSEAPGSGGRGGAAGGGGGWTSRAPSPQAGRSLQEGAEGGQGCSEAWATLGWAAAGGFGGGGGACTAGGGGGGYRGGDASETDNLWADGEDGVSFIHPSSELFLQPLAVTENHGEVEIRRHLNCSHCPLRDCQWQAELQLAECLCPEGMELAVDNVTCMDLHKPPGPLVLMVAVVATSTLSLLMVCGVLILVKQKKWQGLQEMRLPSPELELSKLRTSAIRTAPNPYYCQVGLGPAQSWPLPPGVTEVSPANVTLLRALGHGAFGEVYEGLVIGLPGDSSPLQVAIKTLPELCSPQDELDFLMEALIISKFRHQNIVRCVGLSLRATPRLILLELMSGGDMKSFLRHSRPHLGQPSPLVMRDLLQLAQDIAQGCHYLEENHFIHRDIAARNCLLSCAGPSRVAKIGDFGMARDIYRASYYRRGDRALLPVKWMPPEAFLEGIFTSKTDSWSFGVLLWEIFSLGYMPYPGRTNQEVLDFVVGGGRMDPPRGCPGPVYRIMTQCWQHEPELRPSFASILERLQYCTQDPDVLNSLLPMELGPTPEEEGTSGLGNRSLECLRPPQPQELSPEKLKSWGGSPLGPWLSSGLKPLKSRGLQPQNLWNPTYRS
T1 sequence (P21127 whole entry): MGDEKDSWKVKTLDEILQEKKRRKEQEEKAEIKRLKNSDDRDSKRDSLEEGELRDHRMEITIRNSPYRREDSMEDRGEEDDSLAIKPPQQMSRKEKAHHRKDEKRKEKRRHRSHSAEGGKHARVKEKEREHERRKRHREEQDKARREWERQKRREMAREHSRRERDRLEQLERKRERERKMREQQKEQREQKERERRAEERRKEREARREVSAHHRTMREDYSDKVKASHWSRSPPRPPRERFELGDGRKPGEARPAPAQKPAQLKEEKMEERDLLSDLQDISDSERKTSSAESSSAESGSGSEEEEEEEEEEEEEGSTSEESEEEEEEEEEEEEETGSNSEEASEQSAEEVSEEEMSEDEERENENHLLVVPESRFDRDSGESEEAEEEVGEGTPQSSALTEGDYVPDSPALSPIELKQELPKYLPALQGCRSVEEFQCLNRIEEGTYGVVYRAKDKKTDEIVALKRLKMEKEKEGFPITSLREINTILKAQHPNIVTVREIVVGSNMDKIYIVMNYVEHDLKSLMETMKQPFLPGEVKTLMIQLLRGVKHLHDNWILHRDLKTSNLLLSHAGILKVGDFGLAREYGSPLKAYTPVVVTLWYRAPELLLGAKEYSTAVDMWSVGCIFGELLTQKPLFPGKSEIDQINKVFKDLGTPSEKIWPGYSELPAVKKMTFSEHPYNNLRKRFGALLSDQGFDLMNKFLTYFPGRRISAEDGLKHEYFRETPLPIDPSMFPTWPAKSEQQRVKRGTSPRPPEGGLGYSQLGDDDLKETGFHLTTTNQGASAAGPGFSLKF

Compound | remaining binding at 1 µM [1] [%] | remaining binding at 1 µM [2] [%] | remaining binding at 1 µM [3] [%] | remaining binding at 1 µM [4] [%] | remaining binding at 1 µM [5] [%] | remaining binding at 1 µM [6] [%] | remaining binding at 1 µM [7] [%] | remaining binding at 1 µM [8] [%] | remaining binding at 1 µM [9] [%] | remaining binding at 1 µM [10] [%] | remaining binding at 1 µM [11] [%] | remaining binding at 1 µM [12] [%] | remaining binding at 1 µM [13] [%] | remaining binding at 1 µM [14] [%] | remaining binding at 1 µM [15] [%] | remaining binding at 1 µM [16] [%] | remaining binding at 1 µM [17] [%] | remaining binding at 1 µM [18] [%] | remaining binding at 1 µM [19] [%] | remaining binding at 1 µM [20] [%] | other results
CN1CCC(CNc2cc(Cl)nn3c(-c4cc5nc(Nc6ccccc6)[nH]c5cc4F)cnc23)CC1 [compound 31, 6-Chloro-3-(6-fluoro-2-(phenylamino)-1H-benzo[d]imidazol-5-yl)-N-((1-methylpiperidin-4-yl)methyl)imidazo[1,2-b]pyridazin-8-amine] | 92 | 100 | 97 | 96 | 63 | 100 | 84 | 82 | 94 | 98 | 88 | 74 | 89 | 56 | 91 | 96 | 81 | 91 | 100 | 93 | –
O=C(CN1CCOCC1)N[C@H]1CC[C@H](Nc2cc(Cl)nn3c(-c4ccc5[nH]ncc5c4)cnc23)CC1 [compound 26] | 100 | 61 | 58 | 95 | 0.85 | 90 | 97 | 100 | 73 | 97 | 88 | 67 | 100 | 0.05 | 40 | 99 | 100 | 99 | 99 | 79 | inhibition at 1 µM ([14]; read-out: Probe binding inhibited): > 90%
Clc1cc(NCC2CC2)c2ncc(-c3ccc4[nH]ncc4c3)n2n1 [compound 2, 6-Chloro-N-(cyclopropylmethyl)-3-(1H-indazol-5-yl)imidazo[1,2-b]pyridazin-8-amine] | 100 | 88 | 100 | 100 | 1 | 82 | 100 | 93 | 58 | 100 | 100 | 80 | 98 | 1.3 | 100 | 87 | 88 | 100 | 100 | 73 | –
